This note sets out measurements from PubChem BioAssay (NCI).

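These data come from cells grown in 96-well plates and exposed to compound for 48 hours at five concentrations. TGI: concentration producing complete growth inhibition.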

For the first test, the system named is HT29 colon. Description: DTP human tumour cell line panel, 48 h.
For orientation: TGI means the concentration giving total growth inhibition. Read a low TGI as more potent growth arrest. `O=C1NC(=S)NC(=O)C1C(c1ccccc1[N+](=O)[O-])C1C(=O)NC(=S)NC1=O` displayed a TGI of over 100 µM.

`CC(C)c1c(P(=O)(c2ccccc2)c2ccccc2)n(C)c2ccccc12` displayed a total growth inhibition concentration (TGI) of over 100 µM.

As to `O=C(O)CNC(=O)c1ccc([As](=O)(O)O)cc1`, the total growth inhibition concentration (TGI) is over 100 µM.

For the compound `CCN(CC)CCCn1c(=O)c2cccnc2n2c3c(=O)n(C)c(=O)n(C)c3nc12`, the TGI was over 100 µM.

For a further test, the system named is PC-3 prostate. Description: DTP human tumour cell line panel, 48 h.
In turn, `O=C1NC(=S)NC(=O)C1C(c1ccccc1[N+](=O)[O-])C1C(=O)NC(=S)NC1=O` showed a total growth inhibition concentration (TGI) of over 100 µM.

In turn, `CC(C)c1c(P(=O)(c2ccccc2)c2ccccc2)n(C)c2ccccc12` yielded a TGI of over 100 µM.

As to `O=C(O)CNC(=O)c1ccc([As](=O)(O)O)cc1`, the total growth inhibition concentration (TGI) is over 100 µM.

Take `CCN(CC)CCCn1c(=O)c2cccnc2n2c3c(=O)n(C)c(=O)n(C)c3nc12`: the TGI is over 100 µM.

The subject of another test is T-47D breast. Put plainly: DTP human tumour cell line panel, 48 h.
On to `O=C1NC(=S)NC(=O)C1C(c1ccccc1[N+](=O)[O-])C1C(=O)NC(=S)NC1=O`, for which the TGI is over 100 µM.

`CC(C)c1c(P(=O)(c2ccccc2)c2ccccc2)n(C)c2ccccc12` came in with a TGI of over 100 µM.

For `O=C(O)CNC(=O)c1ccc([As](=O)(O)O)cc1`, the concentration for total growth inhibition (TGI) is over 100 µM.

Regarding `CCN(CC)CCCn1c(=O)c2cccnc2n2c3c(=O)n(C)c(=O)n(C)c3nc12`, the concentration for total growth inhibition (TGI) is over 100 µM.

Another test relates to UACC-62 melanoma. Put plainly: DTP human tumour cell line panel, 48 h.
In the case of `O=C1NC(=S)NC(=O)C1C(c1ccccc1[N+](=O)[O-])C1C(=O)NC(=S)NC1=O`, the concentration for total growth inhibition (TGI) is over 100 µM.

Consider `O=C(O)CNC(=O)c1ccc([As](=O)(O)O)cc1`, for which the TGI was over 100 µM.

For `CCN(CC)CCCn1c(=O)c2cccnc2n2c3c(=O)n(C)c(=O)n(C)c3nc12`, the TGI was over 100 µM.

A further test deals with MDA-N. Description: DTP human tumour cell line panel, 48 h.
As to `O=C1NC(=S)NC(=O)C1C(c1ccccc1[N+](=O)[O-])C1C(=O)NC(=S)NC1=O`, the TGI was over 100 µM.

Regarding `CC(C)c1c(P(=O)(c2ccccc2)c2ccccc2)n(C)c2ccccc12`, the TGI was over 100 µM.

Regarding `O=C(O)CNC(=O)c1ccc([As](=O)(O)O)cc1`, the concentration for total growth inhibition (TGI) is over 100 µM.

As to `CCN(CC)CCCn1c(=O)c2cccnc2n2c3c(=O)n(C)c(=O)n(C)c3nc12`, the TGI was over 100 µM.

The subject of a further test is K-562 leukemia. Put plainly: DTP human tumour cell line panel, 48 h.
Compound `O=C1NC(=S)NC(=O)C1C(c1ccccc1[N+](=O)[O-])C1C(=O)NC(=S)NC1=O` came in with a concentration for total growth inhibition (TGI) of over 100 µM.

Take `CC(C)c1c(P(=O)(c2ccccc2)c2ccccc2)n(C)c2ccccc12`: the TGI was over 100 µM.

`O=C(O)CNC(=O)c1ccc([As](=O)(O)O)cc1` had a TGI of over 100 µM.

The compound `CCN(CC)CCCn1c(=O)c2cccnc2n2c3c(=O)n(C)c(=O)n(C)c3nc12` had a total growth inhibition concentration (TGI) of over 100 µM.

For another test, the system named is 786-0 renal. Put plainly: DTP human tumour cell line panel, 48 h.
`O=C1NC(=S)NC(=O)C1C(c1ccccc1[N+](=O)[O-])C1C(=O)NC(=S)NC1=O` yielded a TGI of over 100 µM.

With `CC(C)c1c(P(=O)(c2ccccc2)c2ccccc2)n(C)c2ccccc12`, the TGI was over 100 µM.

As to `O=C(O)CNC(=O)c1ccc([As](=O)(O)O)cc1`, the TGI was over 100 µM.

On to `CCN(CC)CCCn1c(=O)c2cccnc2n2c3c(=O)n(C)c(=O)n(C)c3nc12`, for which the TGI was over 100 µM.

A further test concerns HCC-2998 colon. Put plainly: DTP human tumour cell line panel, 48 h.
Compound `CC(C)c1c(P(=O)(c2ccccc2)c2ccccc2)n(C)c2ccccc12` registered a TGI of over 100 µM.

For `CCN(CC)CCCn1c(=O)c2cccnc2n2c3c(=O)n(C)c(=O)n(C)c3nc12`, the TGI is over 100 µM.

The subject of the next test is SNB-19 CNS. Description: DTP human tumour cell line panel, 48 h.
As for `O=C1NC(=S)NC(=O)C1C(c1ccccc1[N+](=O)[O-])C1C(=O)NC(=S)NC1=O`, the TGI was over 100 µM.

`CC(C)c1c(P(=O)(c2ccccc2)c2ccccc2)n(C)c2ccccc12` showed a TGI of over 100 µM.

`O=C(O)CNC(=O)c1ccc([As](=O)(O)O)cc1`: the TGI is over 100 µM.

Compound `CCN(CC)CCCn1c(=O)c2cccnc2n2c3c(=O)n(C)c(=O)n(C)c3nc12` gave a TGI of over 100 µM.

Another test has as its system SR leukemia. Description: DTP human tumour cell line panel, 48 h.
For the compound `CC(C)c1c(P(=O)(c2ccccc2)c2ccccc2)n(C)c2ccccc12`, the total growth inhibition concentration (TGI) was over 100 µM.

The compound `CCN(CC)CCCn1c(=O)c2cccnc2n2c3c(=O)n(C)c(=O)n(C)c3nc12` yielded a TGI of over 100 µM.

For a further test, the system named is HOP-62 NSCLC. Description: DTP human tumour cell line panel, 48 h.
Compound `O=C1NC(=S)NC(=O)C1C(c1ccccc1[N+](=O)[O-])C1C(=O)NC(=S)NC1=O` showed a concentration for total growth inhibition (TGI) of over 100 µM.

Consider `CC(C)c1c(P(=O)(c2ccccc2)c2ccccc2)n(C)c2ccccc12`, for which the concentration for total growth inhibition (TGI) was over 100 µM.

In turn, `O=C(O)CNC(=O)c1ccc([As](=O)(O)O)cc1` showed a TGI of over 100 µM.

Consider `CCN(CC)CCCn1c(=O)c2cccnc2n2c3c(=O)n(C)c(=O)n(C)c3nc12`, for which the concentration for total growth inhibition (TGI) was over 100 µM.

A further test deals with RPMI-8226 leukemia. Description: DTP human tumour cell line panel, 48 h.
For `O=C1NC(=S)NC(=O)C1C(c1ccccc1[N+](=O)[O-])C1C(=O)NC(=S)NC1=O`, the TGI was over 100 µM.

Consider `CC(C)c1c(P(=O)(c2ccccc2)c2ccccc2)n(C)c2ccccc12`, for which the TGI was over 100 µM.

In the case of `O=C(O)CNC(=O)c1ccc([As](=O)(O)O)cc1`, the TGI was over 100 µM.

As to `CCN(CC)CCCn1c(=O)c2cccnc2n2c3c(=O)n(C)c(=O)n(C)c3nc12`, the total growth inhibition concentration (TGI) is over 100 µM.

In the next test the test system is HS 578T breast. Description: DTP human tumour cell line panel, 48 h.
Compound `O=C1NC(=S)NC(=O)C1C(c1ccccc1[N+](=O)[O-])C1C(=O)NC(=S)NC1=O` returned a TGI of over 100 µM.

In turn, `CC(C)c1c(P(=O)(c2ccccc2)c2ccccc2)n(C)c2ccccc12` had a TGI of over 100 µM.

Compound `O=C(O)CNC(=O)c1ccc([As](=O)(O)O)cc1` had a TGI of over 100 µM.

`CCN(CC)CCCn1c(=O)c2cccnc2n2c3c(=O)n(C)c(=O)n(C)c3nc12` gave a concentration for total growth inhibition (TGI) of over 100 µM.

Another test has as its system MCF7 breast. Description: DTP human tumour cell line panel, 48 h.
`O=C1NC(=S)NC(=O)C1C(c1ccccc1[N+](=O)[O-])C1C(=O)NC(=S)NC1=O` had a TGI of over 100 µM.

Turning to `CC(C)c1c(P(=O)(c2ccccc2)c2ccccc2)n(C)c2ccccc12`, the TGI was over 100 µM.

Regarding `O=C(O)CNC(=O)c1ccc([As](=O)(O)O)cc1`, the TGI is over 100 µM.

`CCN(CC)CCCn1c(=O)c2cccnc2n2c3c(=O)n(C)c(=O)n(C)c3nc12` yielded a TGI of over 100 µM.

A further test concerns RXF 393 renal. Description: DTP human tumour cell line panel, 48 h.
The compound `O=C1NC(=S)NC(=O)C1C(c1ccccc1[N+](=O)[O-])C1C(=O)NC(=S)NC1=O` registered a TGI of over 100 µM.

The compound `O=C(O)CNC(=O)c1ccc([As](=O)(O)O)cc1` had a TGI of over 100 µM.

Turning to `CCN(CC)CCCn1c(=O)c2cccnc2n2c3c(=O)n(C)c(=O)n(C)c3nc12`, the TGI was over 100 µM.

In another test the test system is SK-MEL-5 melanoma. Put plainly: DTP human tumour cell line panel, 48 h.
Consider `O=C1NC(=S)NC(=O)C1C(c1ccccc1[N+](=O)[O-])C1C(=O)NC(=S)NC1=O`, for which the TGI was over 100 µM.
